{
  "source": "patent US8987332B2",
  "about": "“Methods of treating inflammatory conditions” (The Regents of the University of California, priority 2009, dated 2015)",
  "key": {"RAW 264.7 cells [1]": {"test_system": "RAW 264.7 cells", "assay": "ERK1/2 phosphorylation in RAW 264.7 cells", "format": "cell-based, mouse", "conditions": "100 μM, 5 min", "method": "FIG. 9, related to FIGS. 2 and 3. DHA-stimulated GPR120 inhibits TNF-α, TLR2 and TLR3-induced inflammation via a β-arrestin2 dependent mechanism. (A) ERK1/2 phosphorylation stimulated by GPR120 activation in RAW 264.7 cells transfected with scrambled or GPR120 siRNA. Cells were treated with 100 μM of DHA, α-linolenic acid or palmitic acid for 5 min. […] Data are expressed as the mean±SEM of three independent experiments. *, p<0.05 versus scrambled siRNA transfected cells. (B) Differentiated 3T3-L1 adipocytes were transfected with scrambled or GPR120 siRNA (GPR120 KD) and then 48 hr after siRNA transfection, cells were treated with 100 μM of DHA or GW9508 for 1 hr prior to TNF-α (10 ng/ml) treatment for 7 min prior to harvesting and then subjected to western blotting with the indicated antibodies. (C) RAW 264.7 cells, transfected with scrambled or GPR120 siRNA (GPR120 KD), were treated with 100 μM of DHA for 1 hr prior to 10 min TLR2 ligand, Pam3CSK4 (50 ng/ml), or TLR3 ligand, poly(I:C) (1 μg/ml), treatment and then subjected to western blotting. (D) To characterize the interaction site between β-arrestin2 and GPR120 or TAB1, HA-tagged GPR120 and FLAG-tagged serial C-terminal deletion mutants of β-arrestin2 (full, 1-300, 1-253, 1-176, and 1-163) or an N-terminal deletion mutant (80-410) were cotransfected in 293 cells. For immunoprecipitation of FLAG-βarr2 and HA-GPR120, cells were treated with DHA for 30 min, while DHA was used for 1 hr to detect endogenous TAB1 and FLAG-βarr2 interactions.\n(§1) Proteins from tissues or cell lysates were extracted with radioimmune precipitation buffer in the presence of phosphatase inhibitors and protease inhibitors (Roche Applied Science). […] of proteins/lane were separated on a 10% polyacrylamide, precast SDS gel (Bio-Rad) followed by transfer on polyvinylidene difluoride membrane (Immobilon, Millipore), and western blotting was performed as described (Nguyen et al., 2005) with indicated antibodies. […]"}, "L6 myocytes": {"test_system": "L6 myocytes", "assay": "2-deoxyglucose uptake in L6 myocytes", "format": "cell-based", "conditions": "100 μM, compared to vehicle treated cells", "method": "FIG. 11, related to FIG. 5. Hyperinsulinemic/euglycemic clamp studies in bone marrow transplanted animals and muscle expression of GPR120. For bone marrow transplantation studies, WT or GPR120 KO mouse bone marrow (BM) was injected into irradiated WT C57B1/6 animals after 8 weeks for BM reconstitution, GPR120 was >90% reduced in circulating monocytes. Animals were then kept on either chow or switched to 60% HFD for weeks (±supplemention with ω-3 FAs for 5 weeks). (A) BMT GPR120 KO animals on chow are insulin resistant compared to WT controls. This effect is mediated by decreased GIR and a greater suppression of HGP in WT animals compared to KOs (n=5 for WT and n=6 per KO group). (B) BMT GPR120 KO animals on HFD supplemented with […] FAs (+ω3) are insulin resistant compared to WT controls. This effect is shown by decreased GIR, decreased IS-GDR, and a greater suppression of HGP in WT animals compared to KOs. (C) GPR120 expression levels in various tissues. RPS3 was the internal control for normalization. GPR120 is not expressed in soleus, or EDL muscle. […] Data are expressed as mean±SEM. *, p<0.05 compared to WT in (A) and (B).\nHA-GLUT4-eGFP expression vector were electroporated into day 8 post differentiated 3T3-L1 adipocytes for monitoring of GLUT4 translocation as previously described (Yoshizaki et al., 2007). […] Glucose uptake was measured as previously described (Imamura et al., 1999)."}, "[2]": {"test_system": "IPMacs from GPR120 KO mice", "assay": "In vitro transwell chemotaxis assay, GPR120 KO IPMacs", "format": "cell-based, mouse", "conditions": "pretreatment before exposure to conditioned media", "method": "(§2) It seemed possible that the reduction in ATM content in WT animals on the ω-3 FA diet reflected decreased chemotaxis of macrophages. To test this hypothesis, we measured the migratory capacity of IPMacs from WT and GPR120 KO mice using an in vitro transwell chemotaxis assay. […] Similar experiments were performed using the specific chemokine, monocyte chemotactic protein-1 (MCP-1) as a chemoattractant, rather than CM, and these experiments yielded identical results (FIG. 6D).\n(§3) In vitro chemotaxis assay was performed as previously described (Patsouris et al., 2009). Briefly, mature 3T3-L1 adipocytes, more than 99% of cells showing large lipids droplets (12 days after differentiation protocol initiation), were used for preparation of conditioned media. Treatment with the 100 μM DHA for 6 hr was performed in serum-free DMEM cultured IPMacs. For the migration per se, 100,000 IPMacs from WT or GPR120 KO mice were used per condition. The IPMacs were placed in the upper chamber of an 8 μm polycarbonate filter (24-transwell format; Corning, Lowell, Mass.), whereas adipocyte conditioned medium or MCP-1 treatment was placed in the lower chamber. After 3 hr of migration, cells were fixed in formalin and stained with 4′,6-diamidino-2-phenylindole and observed."}, "IPMacs from WT mice": {"test_system": "IPMacs from WT mice", "assay": "In vitro transwell chemotaxis assay, WT IPMacs", "format": "cell-based, mouse", "conditions": "pretreatment 3 hr before exposure to 3T3-L1 adipocyte conditioned media", "method": "as §2\nas §3, with “Treatment with the 100 μM DHA for 6 hr was performed in serum-free DMEM cultured IPMacs.” left out"}, "3T3-L1 adipocytes [3]": {"test_system": "3T3-L1 adipocytes", "assay": "Akt and IRS-1 phosphorylation in 3T3-L1 adipocytes (western blotting)", "format": "cell-based", "method": "FIG. 10, related to FIG. 4. DHA activates Akt phosphorylation in a GPR120-dependent manner. (A) Differentiated 3T3-L1 adipocytes were transfected with scrambled or GPR120 siRNA and then 48 hr after siRNA transfection, cells were treated with 100 μM of DHA 30 min prior to insulin (3 ng/ml) treatment for 7 min followed by western blotting with phosphorylated Akt (S473) antibody. […] Data are expressed as the mean±SEM of three independent experiments. *, p<0.05 versus basal. (B) Cells were treated with the PI3K inhibitor LY294002 (50 μM) for 30 min before DHA (100 μM) or insulin (3 ng/ml) treatment. (C) Phosphorylation of IRS-1 was detected after DHA or insulin treatment of 3T3-L1 adipocytes. (D) Schematic diagram of GPR120-mediated Akt activation in 3T3-L1 adipocytes.\nas §1"}, "WT mice on 60% HFD": {"test_system": "WT mice on 60% HFD", "assay": "Hyperinsulinemic/euglycemic clamp in HFD-fed WT mice", "format": "in vivo, mouse", "conditions": "gavage 300 μl EPAX 1050TG, clamp 4 hr after gavage, vs saline"}, "RAW 264.7 cells [4]": {"test_system": "RAW 264.7 cells", "assay": "LPS-induced inflammatory signaling and cytokine secretion in RAW 264.7 cells", "format": "cell-based, mouse", "conditions": "for LPS-induced phosphorylation of JNK and IKKβ, IκB degradation, cytokine secretion and inflammatory gene expression level: pretreated 1 hr", "source_text": "FIG. 1. Expression level of GPR120 and GPR120-mediated anti-inflammatory response in RAW 264.7 cells. (A) The mRNA expression pattern of various lipid sensing GPCRs is shown in adipose tissue, (B) CD11c+ bone marrow-derived dendritic cells (BMDCs), bone marrow-derived macrophages (BMDMs), IPMacs, 3T3-L1 preadipocytes, differentiated 3T3-L1 adipocytes, RAW 264.7 cells and L6 myocytes. Ribosomal protein S3 (RPS3) was used as internal control. (C) Expression of GPR120 in SVF, adipocytes and hepatic Kupffer cells from chow (NC)- or HFD-fed mice was examined by q-PCR. Data are expressed as the mean±SEM of at least three independent experiments in triplicate. *, p<0.05 versus NC. (D) RAW 264.7 cells, transfected with scrambled (Scr) or GPR120 #2 siRNA (GPR120 KD), were treated with 100 μM of GW9508 for 1 hr prior to LPS (100 ng/ml) treatment for 10 min and then subjected to western blotting. […] (E) Cytokine secretion level was measured in RAW 264.7 cells by ELISA. Data are expressed as the mean±SEM of three independent experiments. *, p<0.05 versus LPS treatment in scrambled siRNA transfected cells. See also FIGS. 8 and 9.\nProteins from tissues or cell lysates were extracted with radioimmune precipitation buffer in the presence of phosphatase inhibitors and protease inhibitors (Roche Applied Science). […] of proteins/lane were separated on a 10% polyacrylamide, precast SDS gel (Bio-Rad) followed by transfer on polyvinylidene difluoride membrane (Immobilon, Millipore), and western blotting was performed as described (Nguyen et al., 2005) with indicated antibodies. For immunoprecipitations, lysates were incubated with 1 μg of anti-β-arrestin2, TAK1 antibody (Cell signaling), or GFP antibody (Santa Cruz Biotechnology) overnight at 4° C. and immune complexes precipitated with Protein A/G-conjugated beads (Invitrogen). Beads were washed with PBS and resuspended in sample buffer. Lysates and immune complexes were separated by SDS-PAGE, subjected to western blotting.\nTNF-α and IL-6 were directly quantified from RAW 264.7 cells with or without GPR120 knockdown, or IPMacs culture medium. Cells were treated with 100 μM GW9508 or DHA for 1 hr prior to treat 100 ng/ml LPS for 6 hr and then collect medium from the cells and subjected to ELISA according to the manufacturer's instructions (BIOSOURCE). For GLP-1 measurement, mouse blood was collected 1 hr after indicated diet feeding. Adequate inhibitors (protease inhibitors and Diprotin A as DPP IV inhibitor) were used while blood was collecting and then subjected to ELISA to the manufacturer's instructions (ALPCO, Salem, N.H.)."}, "3T3-L1 adipocytes [5]": {"test_system": "3T3-L1 adipocytes", "assay": "GLUT4 translocation and 2-deoxyglucose uptake in 3T3-L1 adipocytes", "format": "cell-based", "conditions": "for glucose transport: pretreated 30 min", "method": "FIG. 4. GPR120 activation enhances GLUT4 translocation and glucose uptake. (A) 3T3-L1 adipocytes were transfected with a dually tagged HA-GLUT4-GFP construct. Total GLUT4 expression was determined by GFP fluorescence, and GLUT4 translocation to the cell surface after 100 ng/ml insulin or 100 μM DHA stimulation for 30 min was determined by indirect immunofluorescence of the HA-conjugated with Alexa 594 in fixed cells. Translocation following insulin stimulation was expressed as a percentage of the maximum response. Bar graph represents the mean±SEM data from four independent experiments. *, p<0.05 vs. vehicle treatment. (B) Glucose uptake was measured in WT and GPR120 KO mouse primary adipose tissue and in (C-F) 3T3-L1 adipocytes±siRNA with the indicated treatment. […] Data are expressed as mean±SEM of three independent experiments in triplicate. *, p<0.05 vs. basal activity. The indicated siRNA knockdown efficiency was validated by western blotting. See also FIG. 10.\nHA-GLUT4-eGFP expression vector were electroporated into day 8 post differentiated 3T3-L1 adipocytes for monitoring of GLUT4 translocation as previously described (Yoshizaki et al., 2007). For 2-DOG assay, 3T3-L1 adipocytes were pretreated for 30 min with the indicated drug; and stimulated with 3 ng/ml of insulin for 30 min at 37° C. L6 myocytes were pretreated for 30 min with 100 μM DHA and then stimulated with 100 ng/ml of insulin for 30 min. Glucose uptake was measured as previously described (Imamura et al., 1999)."}, "[6]": {"conditions": "100 μM 1 hr prior to LPS 100 ng/ml 10 min"}},
  "data": [
    {"molecule": "CC/C=C\\C/C=C\\C/C=C\\CCCCCCCC(=O)O", "note": "[α-linolenic acid]", "values": [
      {"measurement": "ERK phosphorylation", "setting": "RAW 264.7 cells [1]", "result": "activated"}
    ]},
    {"molecule": "CC/C=C\\C/C=C\\C/C=C\\C/C=C\\C/C=C\\C/C=C\\CCC(=O)O", "note": "[DHA]", "values": [
      {"measurement": "glucose uptake", "setting": "L6 myocytes", "result": "not altered"},
      {"measurement": "ERK phosphorylation", "setting": "RAW 264.7 cells [1]", "result": "activated"},
      {"measurement": "effect on chemotactic capacity", "setting": "[2]", "result": "no significant effect"},
      {"measurement": "inhibition of chemotactic capacity", "setting": "IPMacs from WT mice", "result": 80, "unit": "%"},
      {"measurement": "IRS-1 phosphorylation", "setting": "3T3-L1 adipocytes [3]", "result": "did not stimulate"},
      {"measurement": "phosphorylation of Akt", "setting": "3T3-L1 adipocytes [3]; 100 μM", "result": "modest effect"},
      {"measurement": "whole body glucose homeostasis after acute treatment", "setting": "WT mice on 60% HFD", "result": "no effect"},
      {"measurement": "LPS-induced TAK1 and MKK4 phosphorylation", "setting": "RAW 264.7 cells [4]; RAW 264.7 cells", "result": "abrogated"},
      {"measurement": "LPS-induced phosphorylation of JNK and IKKβ, IκB degradation, cytokine secretion and inflammatory gene expression level", "setting": "RAW 264.7 cells [4]; RAW 264.7 cells", "result": "strongly inhibited"},
      {"measurement": "GLUT4 translocation to the cell surface", "setting": "3T3-L1 adipocytes [5]; 100 μM, 30 min", "result": "increased"},
      {"measurement": "effect on glucose uptake relative to the effect of insulin", "setting": "3T3-L1 adipocytes [5]; 3T3-L1 adipocytes", "result": "30-50%"},
      {"measurement": "glucose transport", "setting": "3T3-L1 adipocytes [5]", "result": "increase"}
    ]},
    {"molecule": "O=C(O)CCc1ccc(NCc2cccc(Oc3ccccc3)c2)cc1", "note": "[GW9508]", "values": [
      {"measurement": "IκB degradation", "setting": "RAW 264.7 cells [4]; [6]", "result": "prevented"},
      {"measurement": "LPS stimulated phosphorylation of IKKβ and JNK", "setting": "RAW 264.7 cells [4]; [6]", "result": "inhibited"},
      {"measurement": "TNF-α and IL-6 secretion", "setting": "RAW 264.7 cells [4]; 100 μM 1 hr prior to LPS 100 ng/ml 6 hr, ELISA", "result": "inhibited"},
      {"measurement": "LPS-induced phosphorylation of JNK and IKKβ, IκB degradation, cytokine secretion and inflammatory gene expression level", "setting": "RAW 264.7 cells [4]; RAW 264.7 cells", "result": "strongly inhibited"},
      {"measurement": "glucose transport", "setting": "3T3-L1 adipocytes [5]", "result": "stimulatory effect"}
    ]},
    {"molecule": "CCCCCCCCCCCCCCCC(=O)O", "note": "[palmitic acid]", "values": [
      {"measurement": "ERK phosphorylation", "setting": "RAW 264.7 cells [1]", "result": "activated"}
    ]}
  ]
}
